Results as given in the NIST ThermoML archive (doi:10.1021/acs.jced.5b00805).
± gives the expanded uncertainty stated by the source.

Columns and labels:
[1] = refractive index (Na D-line) (dimensionless); wn = mass fraction of the nth substance listed; settings: 100 kPa, Liquid, Standard Abbe refractometry
[2] = wn = mass fraction of the nth substance listed; settings: 100 kPa, Liquid, Vibrating tube method

| Structure (SMILES) | refractive index ([1]; 288.15 K, w1 = 0.4413) | refractive index ([1]; 308.15 K, w1 = 0.4664) | mass density ([2]; 288.15 K, w1 = 0.4413) [kg/m3] | mass density ([2]; 308.15 K, w1 = 0.4664) [kg/m3] | refractive index ([1]; 288.15 K, w1 = 0.2601) | refractive index ([1]; 308.15 K, w1 = 0.2537) | mass density ([2]; 288.15 K, w1 = 0.2601) [kg/m3] | mass density ([2]; 308.15 K, w1 = 0.2537) [kg/m3] |
| --- | --- | --- | --- | --- | --- | --- | --- | --- |
| [Cl-].[Li+] [lithium chloride] + O | 1.4394 ± 0.0004 | 1.4365 ± 0.0004 | 1287.19 ± 1.1 | 1301.11 ± 1.1 | – | – | – | – |
| O=S(=O)([O-])[O-].[Li+].[Li+] [lithium sulfate] + O | – | – | – | – | 1.3845 ± 0.0004 | 1.3738 ± 0.0004 | 1236.43 ± 1 | 1226.22 ± 1 |
